# Legend:
# [1] = test system: TNF-α/NF-κB pathway; test: TNF-tg:NF-κB-Luc double mutant mice, luciferase imaging by IVIS; type: in vivo; settings: for in vivo inhibition of the TNF-α/NF-κB pathway: FFD 2 or 10 mg/kg, TFD 10 or 50 mg/kg orally for 7 days; for TNF-tg:NF-κB activated luciferase in vivo: third round screen, treatment for 7 days
# Excerpt: In vitro and in vivo screen of FDA-approved drug library. NF-κB-bla THP-1 cell line in which NF-κB beta-lactamase reporter gene was stably integrated, RAW 264.7 macrophages in which NF-κB luciferase reporter gene was transiently transfected, and TNF-tg:NF-κB-Luc double mutant reporter mice were employed to screen the drug library.
# Screening and confirming the drugs' anti-TNF activity in vivo. TNF-tg mice and NF-κB luc mice were purchased from Jackson Laboratory and housed in Skirball Animal Facility of New York University Langone Medical Center. All animal experiments have been approved by Institutional Animal Care and Use Committee (IACUC) of New York University School of Medicine. We generated the TNF-tg/NF-κB-Luc mice by mating TNF-tg mice with NF-κB-Luc mice. After genotypes were confirmed by genotyping and bioluminescence via IVIS, the TNF-tg/NF-κB-Luc mice were orally treated daily with one of the 8 drugs selected in screen two for 7 days. The luciferase activity was detected by IVIS 15 minutes after the injection of D-Luciferin (LUCK-1G, Gold biotechnology).
# [2] = test system: TNF-α-induced genes; test: RNA-seq of TNF-α-treated BMDMs; type: cell-based, mice; settings: TNF-α 10 ng/mL; FFD 10 μM, TFD 1 μM; 24 hours
# Protocol: Primary bone marrow derived macrophages (BMDMs) extraction. BMDMs were isolated from C57BL/6 and TNF-tg mice. After mice were sacrificed by cervical dislocation, the tibia and femur were isolated and both ends of the bones were cut to open the medullary cavity. Bone marrow cells were collected by centrifuge at 13000 g for 90 seconds and seeded in 6-well plates. Prior to their use in experiments, M-CSF (10 ng/ml, 576406, Biolegend) was added for 6 days to the BMDM culture medium.
# RNAseq and Transcription factors enrichment analysis. […] Total RNA was extracted by RNeasy Mini Kit (74106, Qiagen), and gene expression profiling analyzed by RNA-seq was performed by the NYU Genome Technology Center for RNA sequencing (Illumina HiSeq4000 Sequencing, HiSeq 4000 Single Read 50 Cycle Lane).
# [3] = test system: osteoclastogenesis in BMDMs; test: Osteoclastogenesis in BMDMs (TRAP staining); type: cell-based, mice; settings: RANKL 100 ng/mL and TNF-α 10 ng/mL; FFD 10 μM, TFD 1 μM; 4 days
# Protocol: Osteoclastogenesis. […] The cells were fixed with formalin and stained for tartrate-resistant acid phosphatase (TRAP) with a TRAP solution containing 100 mM sodium acetate buffer (pH 5.0), 50 mM sodium tartrate, 0.1 mg/ml sodium naphtol AS-MX phosphate, 0.6 mg/ml Fast Violet LB, and 0.1% Triton X-100. TRAP-positive cells appeared dark red and TRAP-positive multinucleated cells containing more than three nuclei (TRAP-MNCs) were visualized using light microscopy.
# [4] = biological target: T1, cPLA2 (Homo sapiens, UniProt P47712); test: cPLA2 activity assay in cPLA2-transfected RAW264.7 cells; type: cell-based; settings: TNF-α 10 ng/ml; TFD 0.1 or 1 μM, FFD 1 or 10 μM overnight
# T1 construct: expressed in transfected cells; host or cells: RAW264.7
# T1 sequence (P47712 whole entry): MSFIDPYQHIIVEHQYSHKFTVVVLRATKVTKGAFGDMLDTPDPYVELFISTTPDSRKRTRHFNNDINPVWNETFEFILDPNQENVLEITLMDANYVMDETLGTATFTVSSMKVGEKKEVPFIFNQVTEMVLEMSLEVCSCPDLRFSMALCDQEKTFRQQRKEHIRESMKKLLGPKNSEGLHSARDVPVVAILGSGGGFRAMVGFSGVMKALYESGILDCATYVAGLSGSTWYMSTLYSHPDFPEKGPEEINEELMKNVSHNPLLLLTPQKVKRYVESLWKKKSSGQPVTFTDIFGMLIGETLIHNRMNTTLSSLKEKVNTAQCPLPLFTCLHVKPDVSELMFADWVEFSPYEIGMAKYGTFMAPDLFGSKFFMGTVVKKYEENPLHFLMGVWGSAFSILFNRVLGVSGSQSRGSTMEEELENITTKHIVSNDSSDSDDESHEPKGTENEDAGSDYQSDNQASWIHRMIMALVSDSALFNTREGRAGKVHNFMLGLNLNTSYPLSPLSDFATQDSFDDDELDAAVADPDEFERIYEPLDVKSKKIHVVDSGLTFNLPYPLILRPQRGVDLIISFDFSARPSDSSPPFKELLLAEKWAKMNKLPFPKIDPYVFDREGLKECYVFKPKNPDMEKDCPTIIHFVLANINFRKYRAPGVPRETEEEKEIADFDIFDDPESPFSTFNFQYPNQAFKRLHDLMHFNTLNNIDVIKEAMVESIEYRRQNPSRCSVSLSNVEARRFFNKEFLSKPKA
# Protocol: cPLA2 activity assay. RAW264.7 cells were transfected with an expression plasmid encoding cPLA2. 24 hours later, the transfected cells were treated with TNF-α (10 ng/ml) and ATK (1 μM), or TFD (0.1 μM or 1 μM), or FFD (1 μM or 10 μM) overnight. Then the cells were collected and lysed. Cell lysate was used for measurement of cPLA2 activity using a commercial ELISA kit (765021, Cayman Chemical). Briefly, protein concentration of the cell lysate was measured by bicinchoninic acid assay and equal amounts of protein from each lysate sample were incubated with cPLA2 substrate (Arachidonoyl Thio-PC) at room temperature. One hour later, DTNB/EGTA was added to stop the enzyme catalysis, and then the absorbance was read at 414 nm using a plate reader (SpectraMax i3x, 5025027A, Molecular Devices).
# [5] = test system: TNF-α induced AA production; test: Arachidonic acid detection in BMDMs; type: cell-based, mice; settings: TNF-α 10 ng/mL, 48 hours
# Excerpt: Arachidonic acid detection. […] The result was detected at 450nm by automatic plate reader (SpectraMax i3x system, 5025027A, Molecular Devices). ATK was implemented as a positive control.
# [6] = test system: M1 and M2 macrophages; test: Macrophage polarization in vitro (BMDMs) and in vivo (spleen of TNF-α Tg mice); type: cell-based; settings: in vitro BMDMs and spleen of treated TNF-α Tg mice
# Protocol: Macrophage polarization. […] INFγ (25 ng/mL) and LPS (250 ng/mL) were added to BMDMs to induce M1 polarization while IL-4(20 ng/mL) was used to induce M2 polarization, with or without adding FFD (1 or 10 μM) or TFD (0.1 or 1μM), and cells were cultured for 24 hours. mRNA were extracted by RNA Mini kit (74106, QIAGEN).
# Frozen splenic tissue specimens from TNFα Tg mice treated with or without TFD or FFD were stained and analyzed dual immunofluorescence. All sections were permeabilized with 0.1% NP40 in PBS, and then blocked in 5% donkey serum for 30 min at RT, followed by incubated with anti-IFNg (Th1), anti-IL-4 (Th2), anti-IL17 (Th17) and anti-foxp3 (Treg) diluted in 5% donkey serum at 4° C. overnight. On the second day, after washed 3 times in PBS, the sections were incubated with Cy2-conjugated donkey anti-rat IgG for 30 min at RT. After wash, the sections were furthered stained with FITC conjugated anti-CD4 for I hour at RT. To determine the macrophage polarization, sections were double stained with anti-CD68 and iNOS (M1) or CD206 (M2). DAPI were used to stain the nuclei. The fluorescence intensity of cells was quantified by Image J software.
# [7] = test system: TNF-tg mice; test: hTNF-tg mouse model of inflammatory arthritis; settings: for serum levels of IL-1β and IL-6: compared with the control group; for clinical scores of arthritis: oral daily from 8 weeks of age, 13 weeks, FFD 10 mg/kg, TFD 50 mg/kg; for therapeutic effects (swelling score): treatment started at average score of approximately eight points, FFD 0.4, 2, 10 mg/kg, TFD 2, 10, 50 mg/kg oral, 8 weeks; for swelling score once the treatment resumed: treatment stopped at 17-week and resumed at 19-week time point
# Protocol: Six mice in each group. Swelling scores were assessed weekly in accordance with the scoring system offered by the company. The swelling scores were taken as the sum of the scores from digits, paws, wrists and ankles with the highest possible score for each mouse at 24. The score system is: 20 digits (0=normal, 0.2=one or more swollen joints), 4 paws (0=normal, 1=noticeable swollen, 2=severe swollen), 2 wrists (0=normal, 1=noticeable swollen, 2=severe swollen), and 2 ankles (0=normal, 2=noticeable swollen, 4=severe swollen). At the end of treatment and observation, mice were sacrificed for collection of sera, spleens and ankles.
SMILES,in vivo inhibition of the TNF-α/NF-κB pathway [1],TNF-tg:NF-κB activated luciferase in vivo [1],expression of TNF-α-induced genes (RNA-seq) [2],TNF-α-mediated osteoclastogenesis [3],TNF-α induced cPLA2 activity [4],TNF-α induced AA production [5],anti-inflammatory M2 macrophages [6],inflammatory M1 macrophages [6],serum levels of IL-1β and IL-6 ([7]; prevention),clinical scores of arthritis ([7]; prevention),therapeutic effects (swelling score) [7],swelling score once the treatment resumed [7],"clinical scores of arthritis, comparison with MTX ([7]; prevention, FFD 10 mg/kg vs MTX 2 mg/kg oral daily)"
CC(C)(C)c1ccc(C(O)CCCN2CCC(C(O)(c3ccccc3)c3ccccc3)CC2)cc1 (stereo not shown) [terfenadine],dose-dependent inhibition,effectively inhibit,clearly downregulated,markedly inhibited,completely abolished,inhibited,markedly increased,significantly inhibited,significantly reduced,significant reduction,effective therapeutic effects in a dose-dependent manner,immediate reduction,
CC(C)(C(=O)O)c1ccc(C(O)CCCN2CCC(C(O)(c3ccccc3)c3ccccc3)CC2)cc1 (stereo not shown) [fexofenadine],dose-dependent inhibition,effectively inhibit,clearly downregulated,markedly inhibited,completely abolished,inhibited,markedly increased,significantly inhibited,significantly reduced,significant reduction,effective therapeutic effects in a dose-dependent manner,immediate reduction,more effective than MTX

# Reference: patent publication US20200022964A1, “COMPOSITIONS AND METHODS FOR TREATMENT OF INFLAMMATORY AUTOIMMUNE DISEASES” (New York University, priority 2018, published 2020)
